Values of other authors, collected in patent publication US11091735B2, “Polyvalent culture medium for anaerobic bacteria under aerobic conditions” (FONDATION MEDITERRANEE INFECTION, priority 2017, dated 2021).

Conditions: stock solution therefore prepared in ethanol

vitamin E
solubility in water: not soluble in water

Cc1cc(C(C)(C)C)c(O)c(C(C)(C)C)c1 [BHT, Butylhydroxytoluene]
solubility in water: not soluble in water
